Experiments:
[1] = system: tobacco axillary bud growth; experiment: Tobacco axillary bud growth inhibition test, pot plants after top pruning, contact spray; type: in vivo, Nicotiana tabacum, Tsukuba 1 (flue-cured cultivar); settings: single active ingredient, 20 ml sprayed per plant, 28 days after spraying
Experimental: (§1) Tobacco seedlings of Tsukuba 1 (flue-cured cultivar) were transplanted to 1/5000a Wagner pots filled with Kureha garden nursery soil. The plants were grown in a glasshouse, and the floral axis parts were removed at the time of single-flower bloom of tobacco (top pruning).
(§2) Samples were prepared by diluting the above-mentioned formulation containing 10% of chlorthal-dimethyl with water to predetermined concentrations, and adding thereto the formulation containing 70% of decyl alcohol so as to make each sample have a predetermined concentration, and subjected to the test (Examples 1 to 6). Samples were also prepared by diluting the formulation containing 10% of chlorthal-dimethyl with water to predetermined concentrations, and adding thereto the formulation containing 70% of 2-ethyl hexanol so as to make each sample have a predetermined concentration, and subjected to the test (Examples 7 to 12). Samples were also prepared by diluting the formulation containing 10% of chlorthal-dimethyl with water to predetermined concentrations, and adding thereto the formulation containing 70% of […] so as to make each sample have a predetermined concentration, and subjected to the test (Examples 13 to 18). Furthermore, as Comparative Examples, samples were prepared by diluting samples were also prepared by diluting the formulation containing 10% of chlorthal-dimethyl with water to predetermined concentrations (Comparative Examples 1 to 4), by diluting the formulation containing 70% of decyl alcohol with water to predetermined concentrations (Comparative Examples 5 to 7), and by diluting the formulation containing 70% of […] with water to predetermined concentrations (Comparative Examples 8 to 10), and by diluting the formulation containing 70% of […] with water to predetermined concentrations (Comparative Examples 11 to 13) to be subjected to the test. In addition, butralin (tradename: Blue Ribbon) (Comparative Example 14) was subjected to the test.
(§3) With respect to each of the formulations of the inhibitors for tobacco axillary bud growth, 20 ml of the water-diluted solutions of the respective inhibitors were separately sprayed using a contact-type axillary bud inhibitor spraying instrument equipped with a spot exhaust nozzle. One tobacco plant was planted per pot, and the tests were carried out in duplicate.
For the respective cases, states of inhibition of axillary bud growth 28 days after the spraying were investigated together with untreated groups sprayed with no inhibitor, and axillary bud growth inhibition rates were calculated by the following equation. Axillary bud growth inhibition rate=(fresh weight of axillary buds per plant of untreated group−fresh weight of axillary buds per plant of treated group)÷(fresh weight of axillary buds per plant of untreated group)×100 [Math. 1]
It should be noted that the values in parentheses in Table 1 represent predicted values of the effects of inhibiting axillary bud growth of mixed agents (that is, compounds mixed as active ingredients), that is, expected values of additive effects. The expected values were calculated by the following Colby's equation (Colby. S. R.; “Calculating Synergistic and Antagonistic Responses of Herbicide Combinations” Weed, Vol. 15(1), 20-22, 1967). Colby's equation: E=x+y−x·y/100 [Math. 2]
E: Axillary bud growth inhibition rate in the case of using a mixture of active compound A (concentration a) and active compound B (concentration b) (theoretical axillary bud growth inhibition rate)
x: Axillary bud growth inhibition rate in the case of using active compound A at concentration a
y: Axillary bud growth inhibition rate in the case of using active compound B at concentration b
In the case where a measured value determined in the above-mentioned test (axillary bud growth inhibition rate) was larger than the expected value, a synergetic effect was expressed on activity to suppress axillary bud growth.

[2] = system: tobacco leaves (first to fourth leaves from the top); experiment: Harmful effect of the inhibitor on tobacco leaves (growth inhibition, gangrene, change in color, deformation); type: in vivo, Nicotiana tabacum, Tsukuba 1 (flue-cured cultivar)
Experimental: as §1, §2, §3
Further, the presence or absence of the harmful effect of each inhibitor was evaluated in one of the following four categories depending on the degrees of growth inhibition, gangrene, change in color, deformation and the like of leaves (first to fourth leaves from the top).
Large: A severely harmful effect was observed.
Middle: A clearly harmful effect was observed.
Small: A slightly harmful effect was observed.
Absent: No harmful effect was observed.

COC(=O)c1c(Cl)c(Cl)c(C(=O)OC)c(Cl)c1Cl [Comparative Ex. 1, dimethyl tetrachloroterephthalate]
Axillary bud growth inhibition (%) ([1]; concentration 0.002 %): 1.1% | Harmful effect ([2]; in vivo): None

COC(=O)c1c(Cl)c(Cl)c(C(=O)OC)c(Cl)c1Cl [Comparative Ex. 2, dimethyl tetrachloroterephthalate]
Axillary bud growth inhibition (%) ([1]; concentration 0.005 %): 4.2% | Harmful effect ([2]; in vivo): None

COC(=O)c1c(Cl)c(Cl)c(C(=O)OC)c(Cl)c1Cl [Comparative Ex. 3, dimethyl tetrachloroterephthalate]
Axillary bud growth inhibition (%) ([1]; concentration 0.01 %): 23.4% | Harmful effect ([2]; in vivo): None

COC(=O)c1c(Cl)c(Cl)c(C(=O)OC)c(Cl)c1Cl [Comparative Ex. 4, dimethyl tetrachloroterephthalate]
Axillary bud growth inhibition (%) ([1]; concentration 1 %): 100% | Harmful effect ([2]; in vivo): None

CCCCCCCCCCO [Comparative Ex. 5, Decyl alcohol]
Axillary bud growth inhibition (%) ([1]; concentration 0.7 %): 41.4% | Harmful effect ([2]; in vivo): None

CCCCCCCCCCO [Comparative Ex. 6, Decyl alcohol]
Axillary bud growth inhibition (%) ([1]; concentration 1.4 %): 68.6% | Harmful effect ([2]; in vivo): None

CCCCCCCCCCO [Comparative Ex. 7, Decyl alcohol]
Axillary bud growth inhibition (%) ([1]; concentration 2.6 %): 86.8%

CCCCC(CC)CO (stereo not drawn) [Comparative Ex. 8, 2-ethyl hexanol]
Axillary bud growth inhibition (%) ([1]; concentration 0.7 %): 33.1% | Harmful effect ([2]; in vivo): None

CCCCC(CC)CO (stereo not drawn) [Comparative Ex. 9, 2-ethyl hexanol]
Axillary bud growth inhibition (%) ([1]; concentration 1.4 %): 66.6% | Harmful effect ([2]; in vivo): None

CCCCC(CC)CO (stereo not drawn) [Comparative Ex. 10, 2-ethyl hexanol]
Axillary bud growth inhibition (%) ([1]; concentration 2.6 %): 82.1%

CC(C)=CCC/C(C)=C/CO [Comparative Ex. 11, Geraniol]
Axillary bud growth inhibition (%) ([1]; concentration 0.7 %): 52.1% | Harmful effect ([2]; single active ingredient, concentration 0.7 %, 20 ml sprayed per plant): None

CC(C)=CCC/C(C)=C/CO [Comparative Ex. 12, Geraniol]
Axillary bud growth inhibition (%) ([1]; concentration 1.4 %): 72.5% | Harmful effect ([2]; single active ingredient, concentration 1.4 %, 20 ml sprayed per plant): None

CC(C)=CCC/C(C)=C/CO [Comparative Ex. 13, Geraniol]
Axillary bud growth inhibition (%) ([1]; concentration 2.6 %): 87.9% | Harmful effect ([2]; single active ingredient, concentration 2.6 %, 20 ml sprayed per plant): Medium degree | Harmful effect ([2]; single active ingredient, concentration 2.6 %, 20 ml sprayed per plant, listed as Comparative Example 13): small or medium degree

CCC(C)Nc1c([N+](=O)[O-])cc(C(C)(C)C)cc1[N+](=O)[O-] (stereo not drawn) [Comparative Ex. 14, Butralin]
Axillary bud growth inhibition (%) ([1]; concentration 0.35 %): 98.2% | Harmful effect ([2]; in vivo): Small degree
